Reference: paper PMC9238271, “The quorum sensing peptide EntF* promotes colorectal cancer metastasis in mice: a new factor in the host-microbiome interaction” (BMC Biology, 2022)

Assays:
[1] = Formation of EntF* from EntF in HBSS (buffer); format: in vitro ADME; conditions: for Formation rate, HBSS: EntF in HBSS; for EntF* Conc formed from EntF / EntF* without metabolisation, Conc / EntF*/EntF: single run
[2] = In vitro metabolization of EntF: formation of EntF* in feces homogenate; format: in vitro ADME, C57BL/6 female mice; conditions: for EntF* Conc / EntF* without metabolisation, Conc / EntF*/EntF %: Feces, initial concentration EntF 31.82 µM
Experimental: Krebs-Henseleit (KH) buffer (Sigma-Aldrich, Belgium) was prepared by dissolving the powdered medium in 900 mL water while stirring. Once the powder was completely dissolved, 0.3790 g CaCl2•2H2O and 2.098 g NaHCO3 were added to the solution. NaOH or HCl was used to adjust the pH to 7.4. The solution was brought to final volume (1000 mL) with ultrapure water.
Feces homogenates were prepared, after collecting fecal material from two untreated C57BL/6 female mice after cervical dislocation, by using the same procedures employed for colon tissue homogenate preparation. Before use, the homogenate was diluted to a final protein concentration of 0.6 mg/mL.
To avoid the absorption of EntF* onto plasticware and glassware, all tubes and containers were coated with a BSA-based anti-adsorption solution before use.
Five hundred microliters of tissue homogenate were mixed with 400 μL of pre-warmed KH buffer. Then, 100 μL of KH buffer (blank) or 1 mg/mL EntF peptide solution (test) were added to the diluted homogenate and incubated at 37 °C. […] After centrifugation at 16,000g for 30 min at 5 °C, supernatants were analyzed by LC1-MS1 for EntF* quantification.
EntF* was detected and quantified on a Waters Acquity® UPLC H-class system, connected to a Waters Xevo™ TQ-S triple quadrupole mass spectrometer with electrospray ionization (operated in positive ionization mode). Autosampler tray and column oven were kept at 10 ± 5 °C and 60 ± 5 °C, respectively. Chromatographic separation was achieved on a Waters Acquity® UPLC BEH Peptide C18 column (300 Å, 1.7 μm, 2.1 mm × 100 mm). The mobile phases consisted of 93/2/5 water/acetonitrile/DMSO (V/V/V) containing 0.1% formic acid (mobile phase A) and 2/93/5 water/acetonitrile/DMSO (V/V/V) containing 0.1% formic acid (mobile phase B), and the flow rate was set to 0.5 mL/min. A 10-μL aliquot from each sample was injected. The gradient program started with 80% of mobile phase A for 1 min, followed by a linear gradient to 40% of mobile phase A for 3.5 min. Gradient was then changed to 14.2% mobile phase A at 5 min, followed by a 1 min equilibration, before starting conditions were applied. EntF* retention time was between 4.25 and 4.45 min.
An optimized capillary voltage of 3.00 kV, a cone voltage of 20.00 V, and a source offset of 50.0 V were used. Acquisition was done in the MRM mode. The selected precursor ion for EntF* was m/z 865.7 with two selected product ions at m/z 202.08 (36 eV, b2 fragment) as quantifier and m/z 315.17 (31 eV, b3 fragment) as qualifier.

[3] = system: E-cadherin expression in HCT-116 cells; experiment: Western blot of E-cadherin expression, CXCR4-negative HCT-116 cells; format: cell-based
Experimental: HCT-8, HT-29, and HT-116 cells were grown in DMEM medium supplied with 10% fetal bovine serum (FBS) and 1% penicillin-streptomycin. Caco-2 cells were grown in DMEM medium supplied with 10% FBS, 1% non-essential amino acid NEAA), and 1% penicillin-streptomycin. Cells were cultured at 37 °C and 5% CO2. As cells reached confluency, they were detached using 0.25% Trypsin-EDTA.
For Western blot analyses, HCT-8 (n = 15), HCT-116 (n = 12), Caco-2 (n = 6), and HT-29 (n = 12) cells were seeded in 6-well plates at a density of 1 × 10^6 cells/well. Twenty-four hours after seeding, all cell lines were treated with 1 μM EntF* or a placebo solution. HCT-8 cells were also tested for responsiveness to 1 μM EntF* synthetic alanine-derived analogs. For antagonist activity analysis, HCT-8 cells were treated with 1 μM Nef-M1 or 1 μM EntF*A1 alone or in combination with 500 nM EntF*. After 24 h, cells were detached from the surface and lysed in RIPA buffer (Thermo Scientific). Protein concentration was determined using the modified Lowry protein assay kit (Thermo Scientific), according to the manufacturer’s instructions. Protein samples were diluted to the same concentration (4 μg/μL) with water and diluted again 1:1 using 2x Laemmli buffer. After that, samples were boiled for 5 min at 95 °C to denature proteins and centrifuged for 5 min at 16,000g; supernatants were used for Western blot analyses. Equal amounts of total protein (20 μg/lane) were separated by SDS-PAGE on an Any kD^TM gel (Bio-Rad ) and then transferred to a PVDF membrane. Before incubation with antibodies, non-specific binding sites on the membranes were blocked using 5% skimmed milk solution (1 h). TBS buffer with 0.05% Tween 20 was used for all washing steps. Membranes were incubated overnight at 4 °C with an anti-E-cadherin primary antibody (1/1000 dilution). An HRP-conjugated anti-rabbit antibody (1/2000 dilution, 1 h incubation) was used for chemiluminescent detection. Membranes were incubated with the detection substrate for 5 min and signal detection was performed using the ChemiDoc EZ imager and Image Lab software (Bio-Rad). Signal intensity was normalized against the total protein content in each lanes.

[4] = HBSS, initial concentration EntF 31.82 µM, time 0
[5] = HBSS, initial concentration EntF 31.82 µM, time 1
[6] = HBSS, initial concentration EntF 31.82 µM, time 5
[7] = HBSS, initial concentration EntF 31.82 µM, time 10
[8] = HBSS, initial concentration EntF 31.82 µM, time 30
[9] = HBSS, initial concentration EntF 31.82 µM, time 60
[10] = HBSS, initial concentration EntF 31.82 µM, time 120
[11] = HBSS, initial concentration EntF 31.82 µM, time 180

CC(C)C[C@@H]1NC(=O)[C@H](CO)NC(=O)[C@H](Cc2ccccc2)NC(=O)[C@H](C(C)C)NC(=O)[C@@H](NC(=O)[C@H](CCC(=O)O)NC(=O)[C@@H](NC(=O)[C@H](CC(C)C)NC(=O)[C@H](CC(N)=O)NC(=O)[C@@H](N)CO)C(C)C)CSSC[C@@H](C(=O)N[C@@H](CC(N)=O)C(=O)O)NC(=O)[C@H](CCCCN)NC(=O)[C@H](CCCCN)NC(=O)[C@H](Cc2ccccc2)NC1=O (single isomer, unassigned) [EntF*]
Formation rate, HBSS ([1]; value X1): 0.0321 %*min-1 | Formation rate, HBSS ([1]; value X2): 0.0130 %*min-1 | Formation rate, HBSS ([1]; value X3): 0.0600 %*min-1 | Formation rate, HBSS ([1]; value X4): 0.0499 %*min-1 | Formation rate, HBSS ([1]; value X5): 0.0573 %*min-1 | Formation rate, HBSS ([1]; value X6): 0.0440 %*min-1 | Formation rate, HBSS ([1]; value X7): 0.0469 %*min-1 | Rico, Average ([1]; HBSS, initial concentration EntF 31.82 µM, average over the time points 1-180): 0.0433 %*min-1 | EntF* Conc formed from EntF [1, 4]: 0.00 µM | EntF* without metabolisation, Conc [1, 4]: 0.00 µM | EntF* without metabolisation, Conc [1, 5]: 0.01 µM | EntF*/EntF [1, 5]: 0.0321% | EntF* Conc formed from EntF [1, 6]: 0.02 µM | EntF* without metabolisation, Conc [1, 6]: 0.02 µM | EntF*/EntF [1, 6]: 0.0652% | EntF* Conc formed from EntF [1, 7]: 0.19 µM | EntF* without metabolisation, Conc [1, 7]: 0.19 µM | EntF*/EntF [1, 7]: 0.60% | EntF* Conc formed from EntF [1, 8]: 0.48 µM | EntF* without metabolisation, Conc [1, 8]: 0.48 µM | EntF*/EntF [1, 8]: 1.50% | EntF* Conc formed from EntF [1, 9]: 1.09 µM | EntF* without metabolisation, Conc [1, 9]: 1.09 µM | EntF*/EntF [1, 9]: 3.44% | EntF* Conc formed from EntF [1, 10]: 1.68 µM | EntF* without metabolisation, Conc [1, 10]: 1.68 µM | EntF*/EntF [1, 10]: 5.28% | EntF* Conc formed from EntF [1, 11]: 2.69 µM | EntF* without metabolisation, Conc [1, 11]: 2.69 µM | EntF*/EntF [1, 11]: 8.45% | stability of EntF* in HBSS ([1]; HBSS, remark in sheet HBSS): EntF* is stable in HBSS | EntF* Conc ([2]; Time 0): 0.00 µM | EntF* without metabolisation, Conc ([2]; Time 0): 0.0 µM | EntF*/EntF % ([2]; Time 0): 0.0% | EntF* Conc ([2]; Time 1): 0.50 µM | EntF* without metabolisation, Conc ([2]; Time 1): 0.529 µM | EntF*/EntF % ([2]; Time 1): 1.7% | EntF* Conc ([2]; Time 5): 3.00 µM | EntF* without metabolisation, Conc ([2]; Time 5): 3.9 µM | EntF*/EntF % ([2]; Time 5): 12.4% | EntF* Conc ([2]; Time 10): 2.69 µM | EntF* without metabolisation, Conc ([2]; Time 10): 4.6 µM | EntF*/EntF % ([2]; Time 10): 14.5% | EntF* Conc ([2]; Time 30): 2.33 µM | EntF* without metabolisation, Conc ([2]; Time 30): 11.8 µM | EntF*/EntF % ([2]; Time 30): 37.1% | Formation rate, Faeces, Average ([2]; mouse feces homogenate, Krebs-Henseleit buffer pH 7.4, 37 °C, LC1-MS1, average of X1-X4): 1.71 %*min-1 | Formation rate, Faeces ([2]; mouse feces homogenate, Krebs-Henseleit buffer pH 7.4, 37 °C, LC1-MS1, replicate X1): 1.6635 %*min-1 | Formation rate, Faeces ([2]; mouse feces homogenate, Krebs-Henseleit buffer pH 7.4, 37 °C, LC1-MS1, replicate X2): 2.4748 %*min-1 | Formation rate, Faeces ([2]; mouse feces homogenate, Krebs-Henseleit buffer pH 7.4, 37 °C, LC1-MS1, replicate X3): 1.4512 %*min-1 | Formation rate, Faeces ([2]; mouse feces homogenate, Krebs-Henseleit buffer pH 7.4, 37 °C, LC1-MS1, replicate X4): 1.2367 %*min-1 | effect on E-cadherin expression in HCT-116 cells ([3]; CXCR4-negative cells, 24 h, n = 12): no decrease | Relative E-cadherin level ([3]; HCT-116 cells, average of n = 12): 103.8
